{"source": "patent US11473088B2", "about": "“Method of treating cancer and method of sensitizing cancer cells to the action of chemotherapeutic agents via growth hormone receptor antagonists or knock down” (Ohio University, priority 2016, dated 2022)", "key": {"HepG2 cells": {"test_system": "HepG2 cells", "experiment": "RT-qPCR after GH / GHR-antagonist treatment", "format": "cell-based, human", "conditions": "3 days", "procedure": "Following treatments, cells were lysed, and RNA extraction was performed using IBI Tri-isolate kit (IBI), following manufacturer's protocol. RT-qPCR was performed as described previously.\nAnd so, the inventors performed a similar experiment with HepG2 and SK-HEP-1 human liver cancer cells, which have been extensively studied and known to express GHR, to verify this observation in human melanoma cells. In vitro, HepG2 cells were treated for 3 days with either 50 ng/mL GH (2.5 nM), or 50 nM […], or both GH and GHR-antagonist, and their RNA expressions were compared against untreated controls at basal condition (i.e. no drug treatment).\nThe inventors had previously shown that knock-down of GHR in turn strongly attenuates MET as well as HGF transcript levels in human melanoma. To verify this observation in another GHR expressing human cancer like HCC, the inventors analyzed the effects of GH and GHR-antagonist treatment on the expression of the oncogenic HGF-MET loop in human liver cancer cells. HepG2 and SK-HEP-1 cells were treated for 3 days with either 50 ng/mL GH (2.5 nM), or 50 nM GHR-antagonist, or both, and their RNA expressions were compared against untreated controls at basal levels (i.e. no drug treatment). No additional effect of added GH on the expression levels of HGF or MET in the liver cancer cell lines was observed, except a 2-fold increase in MET levels in SK-HEP-1 cells (FIG. 39). […] Irrespective of presence of added GH, the antagonist lowered HGF levels by >4-fold in Hep-G2 cells and up to 2-fold in SK-HEP-1 cells; while the MET levels were decreased by >2-fold in both Hep-G2 and SK-HEP-1 cells compared to the GH treated samples (FIG. 39). This observed nature of the suppressive effect of GHR-antagonist strongly indicates the existence of a autocrine/paracrine GH action in HCC, as the inventors had found stable GH expression in both Hep-G2 and SK-HEP-1 cells."}, "four melanoma cell lines": {"test_system": "four melanoma cell lines", "experiment": "Cell proliferation / EC50 determination", "conditions": "serum concentration in media 1%", "quoted_text": "A 1% (w/v) resazurin (Sigma-Aldrich #R7017) solution in 1× PBS was made and filter-sterilized. The final concentration of resazurin in the assay was 0.004%. Inside the proliferating cells, mildly fluorescent blue resazurin is reduced to a bright pink fluorescent product called resorufin (stable for 4 hours), which allows for a quantitative measure of the percentage of proliferating cells. In all cases, cells were incubated at 37° C. in 5% CO2 for 45-60 min. for adequate sensitivity of detection. Briefly, cells were seeded at 10,000 cells/cm^2 into 96-well plates and transfected as described above. The resazurin assay was performed 60 hours after transfection (unless specified otherwise) and resorufin absorbance was measured at 570 nm (reference wavelength=600 nm) using Spectramax250 (Molecular Devices, Sunnyvale, Calif.) and SoftmaxPro software.\nMore specifically, SK-MEL-28 cells (FIG. 8A, panel 1), MALME-3M cells (FIG. 8A, panel 2), MDA-MB-435 cells (FIG. 8A, panel 3), and SK-MEL-5 cells (FIG. 8A, panel 4) were treated with increasing doses of hGH for 48 hr. and cell proliferation was estimated using a resazurin-based metabolic assay.\nFor treatment of melanoma cells, the following five anti-tumor compounds were obtained from the sources mentioned: cisplatin (Calbiochem #232120, Darmstadt, Germany), doxorubicin (Sigma Aldrich #D-1515, St. Louis, Mo.), oridonin (Sigma-Aldrich #O-9639, St. Louis, Mo.), Paclitaxel (Sigma-Aldrich #C-7191), and vemurafenib/PLX4032 (ApexBio #A-3004, Houston, Tex.). […] In the subsequent experiments, the following drug concentrations were used unless specified otherwise: cisplatin (0.5 μM), doxorubicin (10 nM), oridonin (0.5 μM), paclitaxel (1 nM), vemurafenib (2 nM). Treatments were performed for 24 hours starting 48 hours post-transfection with siRNA."}, "[1]": {"test_system": "Hep-G2 and SK-HEP-1 cells", "experiment": "Time-lapse WB of GH-regulated signaling pathways", "format": "cell-based, human", "conditions": "50 ng/mL GH; within 20 minutes", "procedure": "Following treatments, cells were lysed by mild sonication in Ripa lysis buffer as described previously. SDS-PAGE and western-blot was performed using general lab-techniques as described previously."}, "MALME-3M cells": {"test_system": "MALME-3M cells", "experiment": "Phosphorylation of intracellular signaling intermediates by WB", "format": "cell-based, human", "procedure": "(§1) Briefly, cell lysates were separated by SDS-PAGE and transferred to nitrocellulose membrane by a wet-transfer method at 70 mA over 14 hours at 4° C. and blocked with 5% non-fat dry milk (NFDM) or 5% bovine serum albumin (BSA) in 1× TBS-T (Tris buffered saline, […] with 0.1% Triton-X100) for 12-16 hours at 4° C. with gentle rocking. Membranes were then incubated with primary antibody (at the specific dilutions cited below) for 12-16 hours at 4° C. with gentle rocking. Membranes were then washed for 5 min. 3 times with 1× TBS-T and incubated with corresponding secondary antibodies (at the specific dilutions cited below) for 2 hours at 25° C. Membranes were then washed for 5 min. 4 times with 1× TBS-T, treated with West Femto Chemiluminiscence detection reagents (Thermo Fisher Scientific), and the chemiluminiscence signal was captured using a GelDoc (Biorad) fluorescence reader. Densitometric analysis of the blots was performed by measured band-intensity from the area-under-curve using ImageJ software.\n(§2) GH-GHR action regulates phosphorylation states of intracellular signaling intermediates in human melanoma cells: In order to assess the effects of GHR-KD on the activation states of GH regulated shared oncogenic signaling pathways, scr-siRNA or GHR-siRNA transfected human melanoma cells, at 60 hours post-transfection, were treated with 50 ng/ml hGH for 20 minutes, and phosphorylation levels of intracellular signaling intermediates were analyzed by WB. Results are described below, and shown in FIGS. 9A-9I, 10A-10L, and 11A-11I. For the results described and shown in FIGS. 9A-I, SK-MEL-28 cells, 24 hr post-transfection with either scramble (scr)-siRNA or GHR-siRNA were treated for ten mins with GH and lysed as described. WB was performed using appropriate antibodies. Densitometry analyses of individual blots was performed using Image) software and the ratio of phosphorylated vs. total protein levels against untreated scr-siRNA transfected controls. Overall, excess GH increased while GHR-KD decreased phosphorylation states. […] In all cases, […]] Blots from individual experiments were quantified and the mean of three blots per antibody was taken. Protein levels were normalized against expression of β-actin. [*, p<0.05, Students t test, n=3]. And, for the results described and shown in FIGS. 11A-11I, WB was performed using appropriate antibodies. Densitometry analyses of individual blots was performed using ImageJ software and the ratio of phosphorylated vs. total protein levels against untreated scr-siRNA transfected controls. Overall, excess GH increased while GHR-KD decreased phosphorylation states. Blots from individual experiments were quantified and the mean of three blots per antibody was taken. Protein levels were normalized against expression of β-actin. [*, p<0.05, Students t test, n=3]"}, "SK-MEL-5 cells": {"test_system": "SK-MEL-5 cells", "experiment": "Phosphorylation of intracellular signaling intermediates by WB", "format": "cell-based, human", "procedure": "as §1, §2"}, "SK-MEL-28 cells": {"test_system": "SK-MEL-28 cells", "experiment": "Phosphorylation of intracellular signaling intermediates by WB", "format": "cell-based, human", "procedure": "as §1, §2"}}}
{"substance": "hGH: Recombinant human growth hormone, Antibodies Online #ABIN2017921", "values": [{"measurement": "RNA level of CDH1, the epithelial marker", "setting": "HepG2 cells; 50 ng/mL GH", "value": "downregulating"}, {"measurement": "RNA levels of mesenchymal marker vimentin", "setting": "HepG2 cells; 50 ng/mL GH", "value": "significantly upregulate"}, {"measurement": "levels of ABCC4 and of the transcription factor SPI-B", "setting": "HepG2 cells; exogenous GH 50 ng/mL", "value": "markedly upregulated"}, {"measurement": "minimum hGH concentration for a significant difference in cell proliferation", "setting": "four melanoma cell lines", "value": 50, "unit": "ng/mL"}, {"measurement": "phosphorylation states of STAT3, STAT5, SRC, and ERK1/2 (p44/42 MAPK)", "setting": "[1]", "value": "increased significantly"}, {"measurement": "increase in GH-induced phosphorylation of SRC", "setting": "MALME-3M cells", "value": 1.7, "unit": "fold"}, {"measurement": "STAT5 phosphorylation increased", "setting": "MALME-3M cells; 50 ng/ml hGH", "value": 5.8, "unit": "fold"}, {"measurement": "increase in STAT1 phosphorylation level", "setting": "MALME-3M cells; 50 ng/ml hGH", "value": 2.2, "unit": "fold"}, {"measurement": "increase in STAT3 phosphorylation level", "setting": "MALME-3M cells; 50 ng/ml hGH", "value": 11.9, "unit": "fold"}, {"measurement": "ERK1/2 levels upregulated by GH (increase)", "setting": "SK-MEL-5 cells", "value": 5, "unit": "fold"}, {"measurement": "increase in GH-induced phosphorylation of JAK2", "setting": "SK-MEL-5 cells", "value": 1.7, "unit": "fold"}, {"measurement": "increase of AKT phosphorylation level", "setting": "SK-MEL-5 cells; 50 ng/ml hGH", "value": "up to 4 fold"}, {"measurement": "increase of mTOR phosphorylation level", "setting": "SK-MEL-5 cells; 50 ng/ml hGH", "value": "≤ 15", "unit": "fold"}, {"measurement": "increase in GH-induced phosphorylation of JAK2", "setting": "SK-MEL-28 cells", "value": 6.1, "unit": "fold"}, {"measurement": "increase in GH-induced phosphorylation of SRC", "setting": "SK-MEL-28 cells", "value": 3.5, "unit": "fold"}, {"measurement": "STAT5 phosphorylation increased", "setting": "SK-MEL-28 cells; 50 ng/ml hGH", "value": 4.1, "unit": "fold"}, {"measurement": "increase in STAT1 phosphorylation level", "setting": "SK-MEL-28 cells; 50 ng/ml hGH", "value": 2.4, "unit": "fold"}, {"measurement": "increase in STAT3 phosphorylation level", "setting": "SK-MEL-28 cells; 50 ng/ml hGH", "value": 1.9, "unit": "fold"}]}
